Laboratory results taken from patent US8940783B2, “Pheophorbide-α conjugates and their uses” (Gwangju Institute of Science and Technology, priority 2012, dated 2015).

How the values were obtained:
[1] = tested on: MCF7 (breast adenocarcinoma) cells; assay: SRB cell viability assay, MCF7; format: cell-based; details: 10 μM, three days
Description: (§1) The AT-84 is a squamous cell carcinoma, spontaneously arising from oral mucosa and syngenic to C3H/HeJ mice (which were kindly provided by Dr. E. J. Shillitoe, State University of New York, Upstate Medical University). MCF7, KB, HCT116, PC3, U-87MG, SK-OV-3, AT-84 cells were grown in RPMI 1640. The adherent cell line HepG2, HeLa, A549, YD-10B cells were cultured in DMEM medium. Both media were supplemented with 10% FBS (Invitrogen Co.), and antibiotic-antimycotic (Invitrogen Co.). All cell lines were incubated in a humidified atmosphere containing 5% CO2 at 37° C. The adherent cells were detached from the culture flasks by removal of the growth medium and addition of 1 mL trypsin/EDTA solution (0.05% w/v trypsin, 0.016% w/v EDTA). After 1-2 min incubation at 37° C., when the cells had detached from the surface, trypsinization was stopped by the addition of 4 mL of DMEM medium containing 10% FBS. […]
(§2) A cell viability assay was conducted to test the synthesized compounds on various cancer cells including MCF7 (breast adenocarcinoma), KB (mouth carcinoma), HeLa (cervical cancer), U-87MG (glioblastoma), A549 (lung adenocarcinoma), AT-84 (oral cancer), and YD-10B (oral cancer) cells. Briefly, the cells were incubated for three days with the synthesized compounds (6, 7, 10, and 13) and the viability was measured by the protocol of SRB assay. […]

[2] = tested on: HeLa (cervical cancer) cells; assay: SRB cell viability assay, HeLa; format: cell-based; details: 10 μM, three days
Description: as §1, §2

[3] = tested on: U-87MG (glioblastoma) cells; assay: SRB cell viability assay, U-87MG; format: cell-based; details: U-87MG cells, 10 μM, three days
Description: as §1, §2

[4] = tested on: AT-84 (oral cancer) cells; assay: SRB cell viability assay, AT-84; format: cell-based, mice; details: AT-84 cells, 10 μM, three days
Description: as §1, §2

various cancer cells = assay: SRB cell viability assay, various cancer cells (overall comparison); format: cell-based; details: same concentration (10 μM), three days; 6 compared with DOX; 10 and 13 compared with Pa-DOX direct conjugate
Description: The AT-84 is a squamous cell carcinoma, spontaneously arising from oral mucosa and syngenic to C3H/HeJ mice (which were kindly provided by Dr. E. J. Shillitoe, State University of New York, Upstate Medical University). MCF7, KB, HCT116, PC3, U-87MG, SK-OV-3, AT-84 cells were grown in RPMI 1640. The adherent cell line HepG2, HeLa, A549, YD-10B cells were cultured in DMEM medium. Both media were supplemented with 10% FBS (Invitrogen Co.), and antibiotic-antimycotic (Invitrogen Co.). All cell lines were incubated in a humidified atmosphere containing 5% CO2 at 37° C. The adherent cells were detached from the culture flasks by removal of the growth medium and addition of 1 mL trypsin/EDTA solution (0.05% w/v trypsin, 0.016% w/v EDTA). After 1-2 min incubation at 37° C., when the cells had detached from the surface, trypsinization was stopped by the addition of 4 mL of DMEM medium containing 10% FBS.
The cells were plated at a density of 50,000 cells/mL and well in 96-well plates and incubated with inhibitors for the time indicated. The SRB assay was carried out as described by Skehan et al. (Skehan, P. et al., J. Natl. Cancer Inst. 1990, 82, 1107). The drug incubation period of the cells was stopped by the addition of 50 μL of ice cold TCA solution into the growth medium.
A cell viability assay was conducted to test the synthesized compounds on various cancer cells including MCF7 (breast adenocarcinoma), KB (mouth carcinoma), HeLa (cervical cancer), U-87MG (glioblastoma), A549 (lung adenocarcinoma), AT-84 (oral cancer), and YD-10B (oral cancer) cells. Briefly, the cells were incubated for three days with the synthesized compounds (6, 7, 10, and 13) and the viability was measured by the protocol of SRB assay. […] The results may be interpreted with possibilities that the conjugates may suffer from entering the cells or being cleaved in the cells. Infact, the cellular uptake of the conjugates was occurred slower than Pa itself as shown in the study of Section 2.4. […]

[5] = Fluorescence spectrometry; format: physicochemical; details: for fluorescence emission peak: 1 μM in MeOH; for blue shift of fluorescence emission spectra at pH 4 from those at pH 10 / intensity of fluorescence at pH 4 and pH 10 / intensity of fluorescence in 50% aqueous MeOH compared with 100% MeOH: 420 nm excitation, 6 at 1 μM; for blue shift of fluorescence emission spectra at pH 4 from those at pH 10 / intensity of fluorescence at pH 4 and pH 10: 7 at 0.3 μM; for intensity of fluorescence in 50% aqueous MeOH compared with 100% MeOH: 7 at 0.5 μM
Description: Fluorescence measurements were done using a FluoroMate FS-2. Steady-state fluorescence spectra were generally taken at 1 μM of compounds (1, 2, 6, 10, and 13) and 0.5 μM of compound 7 in MeOH. The samples were illuminated with 420 and 440 nm of light and fluorescence emission was scanned from 500 to 800 nm. Fluorescence spectra in both aqueous and organic solvent were generally taken at 1 μM of compound 6 and 0.5 μM of compound 7 in 100% MeOH and 50% aqueous MeOH by illumination with 420 nm of light. The pH profiles of fluorescence spectra were generally taken at 1 μM of compound 6 and 0.3 μM of compound 7 at pH 4 and 10 in MeOH by illumination with 420 nm of light.
To determine fluorescence quenching effect of the conjugates, the intensity of fluorescence of each compound with same concentration was analyzed using fluorescence spectrophotometer. The fluorescence emission spectrum of compounds at 1 μM (1, 2, 6, 10, and 13) and 0.5 μM (7) was obtained by excitation wavelengths (420 and 440 nm). […] Therefore, it could be speculated that the background fluorescence of the conjugates as they are administered invivo, may not be detected until internalization and cleavage of the conjugates by enzymatic attack in cancer cells are occurred so that the photoactivity of Pa and DOX may be recovered. In the case of Pa-PTX conjugate (7), fluorescence quenching effect was not observed as PTX is not a fluorophore (FIG. 3). To verify fluorescence quenching due to a close contact effect, spectral comparison of fluorescence emission of compounds 6 (1 μM) and 7 (0.5 μM) in aqueous and organic solvent was investigated by 420 nm excitation wavelength using fluorescence spectrophotometer. In contact quenching, two molecules interact by proton-coupled electron transfer through the formation of hydrogen bonds. In aqueous solutions, electrostatic, steric and hydrophobic forces control the formation of hydrogen bonds. Therefore, the quenching efficiency of conjugates could depend on the employed solvents.

[6] = tested on: KB (mouth carcinoma) cells; assay: SRB cell viability assay, KB; format: cell-based; details: 10 μM, three days
Description: as §1, §2

[7] = tested on: YD-10B (oral cancer) cells; assay: SRB cell viability assay, YD-10B; format: cell-based; details: YD-10B cells, 10 μM, three days
Description: as §1, §2

## C=Cc1c(C)c2cc3nc(c4c5[nH]c(cc6nc(cc1[nH]2)C(C)=C6CC)c(C)c5C(=O)C4C(=O)OC)[C@@H](CCC(=O)NC1C[C@@H](O[C@H]2C[C@](O)(C(=O)CO)Cc4c(O)c5c(c(O)c42)C(=O)c2c(OC)cccc2C5=O)O[C@H](C)[C@@H]1O)[C@@H]3C (stereo partly drawn) [Compound 6, Pheophorbide-α-Doxorubicin]
[1]
  inhibition of growth / cell viability: moderately inhibited
[2]
  inhibition of growth / cell viability: moderately inhibited
[3]
  inhibition of growth / cell viability: moderately inhibited
[4]
  inhibition of growth / cell viability: moderately inhibited
Various cancer cells
  inhibitory activity of the cell viability relative to comparator: lower activity than DOX itself
[5]; excitation 420 and 440 nm
  fluorescence emission peak: 670 nm
[5]
  blue shift of fluorescence emission spectra at pH 4 from those at pH 10: about 10 nm
  intensity of fluorescence at pH 4 and pH 10: increased at pH 4 but decreased at pH 10
  intensity of fluorescence in 50% aqueous MeOH compared with 100% MeOH: significantly reduced

## Pheophorbide-α-4-aminobenzyl alcohol-4-nitrophenyl formate-doxorubicin [Compound 13]
Various cancer cells
  inhibitory activity of the cell viability relative to comparator: generally less inhibitory activity
[5]; excitation 420 and 440 nm
  fluorescence emission peak: 670 nm

## C=Cc1c(C)c2cc3nc(c4c5[nH]c(cc6nc(cc1[nH]2)C(C)=C6CC)c(C)c5C(=O)C4C(=O)OC)[C@@H](CCC(=O)O[C@H](C(=O)O[C@H]1C[C@@]2(O)[C@@H](OC(=O)c4ccccc4)[C@@H]4[C@]5(OC(C)=O)CO[C@@H]5C[C@H](O)[C@@]4(C)C(=O)[C@H](OC(C)=O)C(=C1C)C2(C)C)[C@H](NC(=O)c1ccccc1)c1ccccc1)[C@@H]3C (stereo partly drawn) [Compound 7, Pheophorbide-α-Paclitaxel]
[1]
  inhibition of growth / cell viability: potent inhibitory activity
[2]
  inhibition of growth / cell viability: potent inhibitory activity
[6]
  inhibition of growth / cell viability: potent inhibitory activity
[7]
  inhibition of growth / cell viability: potent inhibitory activity
[5]; 0.5 μM in MeOH, excitation 420 and 440 nm
  fluorescence quenching effect: not observed
[5]
  blue shift of fluorescence emission spectra at pH 4 from those at pH 10: about 10 nm
  intensity of fluorescence at pH 4 and pH 10: increased at pH 4 but decreased at pH 10
  intensity of fluorescence in 50% aqueous MeOH compared with 100% MeOH: significantly reduced

## Pheophorbide-α-2-hydroxycinnamic acid-doxorubicin [Compound 10]
Various cancer cells
  inhibitory activity of the cell viability relative to comparator: generally less inhibitory activity
[5]; excitation 420 and 440 nm
  fluorescence emission peak: 670 nm

## C=Cc1c(C)c2cc3nc(c4c5[nH]c(cc6nc(cc1[nH]2)C(C)=C6CC)c(C)c5C(=O)C4C(=O)OC)[C@@H](CCC(=O)O)[C@@H]3C (stereo partly drawn) [Compound 1, Pheophorbide-α]
[5]; excitation 420 and 440 nm
  fluorescence emission peak: 665 nm

## COc1cccc2c1C(=O)c1c(O)c3c(c(O)c1C2=O)C[C@@](O)(C(=O)CO)C[C@@H]3O[C@H]1C[C@H](N)[C@H](O)[C@H](C)O1 [Compound 2, doxorubicin, reference compound]
[5]; excitation 420 and 440 nm
  fluorescence emission peak: 585 nm
